The results in this text go back to ChEMBL document CHEMBL1131161 (J Med Chem, 1998).

For orientation: IC50 means the concentration that inhibits the measured activity by half. In general, Ki refers to the equilibrium dissociation constant of an inhibitor or competing ligand from its target. A low value points to higher affinity. The EC50 is the midpoint of the concentration-response curve. Lower therefore signals a more potent agent.

One experiment deals with CV-1. In words: Inhibitory concentration in CV-1 cell. Type of experiment: functional, cell-based, Cercopithecidae. The following applies: Chlorocebus aethiops.
As for `CC1=CC(C)(C)Nc2ccc3c(c21)/C(=C/c1ccccc1Cl)Oc1ccccc1-3`, the IC50 is above 10000 nM.
In the case of `CC1=CC(C)(C)Nc2ccc3c(c21)/C(=C/c1ccc(F)cc1F)Oc1ccccc1-3`, it took 550 nM to reach half-maximal inhibition (IC50).
`CC1=CC(C)(C)Nc2ccc3c(c21)/C(=C/c1cccc(F)c1F)Oc1ccccc1-3` showed an IC50 of 531 nM.
The compound `CC1=CC(C)(C)Nc2ccc3c(c21)/C(=C/c1ccccc1F)Oc1ccccc1-3` showed an IC50 above 10000 nM.
As to `CC1=CC(C)(C)Nc2ccc3c(c21)C(c1ccccc1)Oc1ccccc1-3` (configuration not stated), the IC50 was 290 nM. This lies in the sub-micromolar range.
`CC1=CC(C)(C)Nc2ccc3c(c21)/C(=C/c1ccccc1Br)Oc1ccccc1-3`: the IC50 was above 10000 nM.
The same measure, in the same setting: then `CC1=CC(C)(C)Nc2ccc3c(c21)/C(=C/c1c(F)cccc1F)Oc1ccccc1-3`, with 220 nM; and `CC1=CC(C)(C)Nc2ccc3c(c21)C(Cc1ccccc1)Oc1ccccc1-3` (configuration not stated), with 270 nM; and `CC1=CC(C)(C)Nc2ccc3c(c21)/C(=C/c1cccc(Cl)c1)Oc1ccccc1-3`, with above 10000 nM.
In turn, `CC1=CC(C)(C)Nc2ccc3c(c21)/C(=C/c1cccc(Br)c1)Oc1ccccc1-3` displayed an IC50 above 10000 nM.

The target in another experiment is T1, Progesterone receptor (Homo sapiens, UniProt P06401).
T1 sequence (P06401 whole entry): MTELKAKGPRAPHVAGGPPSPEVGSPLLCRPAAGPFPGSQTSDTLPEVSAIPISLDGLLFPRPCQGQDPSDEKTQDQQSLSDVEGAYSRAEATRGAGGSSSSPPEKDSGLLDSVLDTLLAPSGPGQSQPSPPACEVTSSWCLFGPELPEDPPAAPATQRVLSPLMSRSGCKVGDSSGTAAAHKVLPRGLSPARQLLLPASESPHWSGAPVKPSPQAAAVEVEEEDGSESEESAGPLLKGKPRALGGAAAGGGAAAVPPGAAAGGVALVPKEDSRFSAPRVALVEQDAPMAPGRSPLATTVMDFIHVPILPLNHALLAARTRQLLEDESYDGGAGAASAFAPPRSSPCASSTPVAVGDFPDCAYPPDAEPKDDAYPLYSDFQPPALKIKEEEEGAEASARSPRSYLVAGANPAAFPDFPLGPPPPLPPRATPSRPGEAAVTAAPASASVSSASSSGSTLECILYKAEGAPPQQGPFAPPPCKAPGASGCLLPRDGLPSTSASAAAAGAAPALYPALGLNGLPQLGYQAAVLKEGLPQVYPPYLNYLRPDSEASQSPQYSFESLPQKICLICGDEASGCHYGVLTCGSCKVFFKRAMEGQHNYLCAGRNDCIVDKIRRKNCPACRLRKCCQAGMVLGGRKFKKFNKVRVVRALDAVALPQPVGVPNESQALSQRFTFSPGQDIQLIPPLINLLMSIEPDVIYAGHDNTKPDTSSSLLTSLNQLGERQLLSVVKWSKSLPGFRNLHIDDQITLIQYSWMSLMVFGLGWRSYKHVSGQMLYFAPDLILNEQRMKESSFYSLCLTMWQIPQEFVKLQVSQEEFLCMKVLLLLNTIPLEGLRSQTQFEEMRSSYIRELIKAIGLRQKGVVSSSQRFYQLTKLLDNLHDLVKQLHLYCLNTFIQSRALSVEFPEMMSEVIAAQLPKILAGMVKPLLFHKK
In words: Binding affinity against human progesterone receptor.
Conditions: not given
As for `CC1=CC(C)(C)Nc2ccc3c(c21)/C(=C/c1ccccc1Cl)Oc1ccccc1-3`, the Ki stood at 1.3 nM.
On the same count and under the same terms, then `CC1=CC(C)(C)Nc2ccc3c(c21)/C(=C/c1cccc(F)c1F)Oc1ccccc1-3`, with 24.3 nM; and `CC1=CC(C)(C)Nc2ccc3c(c21)/C(=C/c1ccccc1F)Oc1ccccc1-3`, with 5.6 nM.
Still for that read-out and setting: then `CC1=CC(C)(C)Nc2ccc3c(c21)/C(=C/c1ccccc1Br)Oc1ccccc1-3`, with 5.5 nM; and `CC1=CC(C)(C)Nc2ccc3c(c21)/C(=C/c1c(F)cccc1F)Oc1ccccc1-3`, with 31.3 nM; and `CC1=CC(C)(C)Nc2ccc3c(c21)C(Cc1ccccc1)Oc1ccccc1-3` (configuration not stated), with 2.1 nM.
Take `CC1=CC(C)(C)Nc2ccc3c(c21)/C(=C/c1cccc(Cl)c1)Oc1ccccc1-3`: the Ki worked out at 18.7 nM.
In the case of `CC1=CC(C)(C)Nc2ccc3c(c21)/C(=C/c1cccc(Br)c1)Oc1ccccc1-3`, the Ki turned out to be 22.1 nM.

The target of the next experiment is T1, Progesterone receptor. In words: Effective concentration (EC50) against human progesterone receptor expressed in CV-1 cell. Type of experiment: functional, cell-based.
Conditions: not given
`CC1=CC(C)(C)Nc2ccc3c(c21)/C(=C/c1ccccc1Cl)Oc1ccccc1-3` gave an EC50 of 57.8 nM.
As to `CC1=CC(C)(C)Nc2ccc3c(c21)/C(=C/c1ccc(F)cc1F)Oc1ccccc1-3`, it took 22 nM to reach a half-maximal effect (EC50).
Compound `CC1=CC(C)(C)Nc2ccc3c(c21)/C(=C/c1cccc(F)c1F)Oc1ccccc1-3` yielded an EC50 of 26.3 nM.
`CC1=CC(C)(C)Nc2ccc3c(c21)/C(=C/c1ccccc1F)Oc1ccccc1-3` displayed an EC50 of 29 nM. The EC50 values of the last two compounds are within 1.5-fold of each other.
For `CC1=CC(C)(C)Nc2ccc3c(c21)/C(=C/c1ccccc1Br)Oc1ccccc1-3`, the EC50 worked out at 57.8 nM.
Still for that read-out and setting: as for `CC1=CC(C)(C)Nc2ccc3c(c21)/C(=C/c1c(F)cccc1F)Oc1ccccc1-3`, the figure is 32 nM; as for `CC1=CC(C)(C)Nc2ccc3c(c21)C(Cc1ccccc1)Oc1ccccc1-3` (configuration not stated), 16.8 nM; as for `CC1=CC(C)(C)Nc2ccc3c(c21)/C(=C/c1cccc(Cl)c1)Oc1ccccc1-3`, 117 nM.
For the compound `CC1=CC(C)(C)Nc2ccc3c(c21)/C(=C/c1cccc(Br)c1)Oc1ccccc1-3`, the EC50 worked out at 37 nM.
